Measurements as given in PMC8966664 (Frontiers in Pharmacology, 2022).

What was measured:
Format in all cases: in vivo, Sprague Dawley rats
[1] = tested on: sinusoidal endothelial cells; test: Immunofluorescence of RECA-1 in liver sections; details: rats; EX or GA treated groups + RTS
Procedure: (§1) EX and GA were dissolved in distilled water at 37°C for oral administration with the dosage of EX and GA as 500 mg/kg and 50 mg/kg. […] RTS was given following the last dose of distilled water/GA/EX. Detailed dosage regimens are described in Supplementary Figure S2. All rats were sacrificed at 48 h after the last dosing. Serum and liver samples were collected and stored at −80°C until use.
The largest lobe of the rat liver was sliced, cold-embedded in Tissue-Tek OCT compound, and processed for immunohistochemistry according to the Abcam IHC frozen sections staining protocol. The tissue slices were incubated with rat endothelial cell antigen (RECA)-1 antibody and Alexa Fluor 488-conjugated goat anti-mouse IgG, and then stained with DAPI and observed under Olympus FluoViewTM FV1000 confocal microscope.

RTS-induced liver damage = test: Histological examination (H&E) and scoring of liver damage, modified DeLeve's system; parameters: key to Central vein endothelial damage / Sinusoidal hemorrhage / Sinusoidal dilation / Coagulative necrosis / Apoptotic bodies / Subendothelial fibrosis / Sinusoid fibrosis / Subendothelial hemorrhage: 0-absent; 1-mild; 2-moderate; 3-severe; details: rats
Procedure: as §1
The largest lobe of the liver was sliced, fixed in 10% buffered-neutral formalin for 24 h, and embedded in wax. Sections of 5 µm in thickness were subjected to hematoxylin and eosin staining before being examined. Liver injury (necrosis, endothelial cell damage, and hemorrhage) was evaluated with a LEICA DM5000B Microscope (Leica, Heidelberg, Germany).
Protective effects of EX and GA on RTS-induced hepatotoxicity were also evaluated by histopathological examination. […] The damage of sinusoidal endothelial cells was further measured by the immunofluorescence of RECA-1. […] The degrees of hemorrhage, sinusoidal dilation, and necrosis were assessed and scored (Table 2) according to a modified DeLeve’s system ([Deleve et al., 1999]) as summarized in Supplementary Table S3.

pyrrole-protein adducts = test: Toxicokinetic study: plasma kinetic profile of pyrrole-protein adducts; details: rats; GA 50 mg/kg + RTS 30 mg/kg vs RTS group
Procedure: For the toxicokinetic study, jugular vein cannulation was performed on rats on the day before drug administration. The right jugular vein was cannulated with a polyethylene tube (0.4 mm i.d. × 0.8 mm o.d., SIMS Portex, United Kingdom) for blood sampling. The rats were maintained in individual metabolic cages and fasted overnight with free access to water. […] Saline (0.2 ml) containing 25 units of heparin/mL was injected after each blood sampling for compensation of blood withdrawal. The blood samples were then centrifuged at 3,000 x g for 30 min, and plasma samples were harvested and stored at −20°C until use.
The pyrrole-protein adducts were measured according to our previously developed method ([Lin et al., 2011]; [Ruan et al., 2014]). Briefly, 50 mg liver or 100 µL serum/plasma was mixed with acetone and centrifuged at 900 x g for 10 min. […] After centrifuging at 20,000 x g for 30 min, the supernatants were collected and analyzed by LC-MS/MS according to our previously developed methods ([Ma et al., 2019]; [He et al., 2021a]; [Ma et al., 2021]). […]
Data are expressed as mean ± SD. […] Toxicokinetic parameters were calculated by noncompartmental methods using WinNonlin version 4.0 (Pharsight, Mountain View, CA, United States). […] The inhibition constant (K i ) value of GA was determined by the secondary Lineweaver-Burk plots. […]

RTS-induced liver injury = test: Serum ALT, hepatic MDA and GSH in RTS-induced liver injury; details: rats
Procedure: as §1
The serum alanine transaminase (ALT) level was measured by a kit obtained from Sigma-Aldrich Chemical Co. (St. Louis, MO, United States). The total bilirubin level was measured by the QuantiChromTM Bilirubin Assay kit according to the manufacturer’s instructions (BioAssay Systems, Hayward, CA, United States). Hepatic malondialdehyde (MDA) level was measured using a kit obtained from Nanjing Jiancheng Bioengineering Institute (Nanjing, China). Total GSH content in the liver was measured following a standard spectrophotometric method using Ellaman’s reagent.

[2] = multiple dose (EX 500 mg/kg/day or GA 50 mg/kg/day, 5 consecutive days) + RTS 40 mg/kg, 48 h after last dosing
[3] = single dose (EX 500 mg/kg or GA 50 mg/kg) + RTS 40 mg/kg, 48 h after last dosing
[4] = substance alone (EX/GA single and multiple administrations; RTS single dose), 48 h

## CC1(C)[C@@H](O)CC[C@]2(C)[C@H]3C(=O)C=C4[C@@H]5C[C@@](C)(C(=O)O)CC[C@]5(C)CC[C@@]4(C)[C@]3(C)CC[C@@H]12 [GA, 18β-glycyrrhetinic acid]
[1]
  RTS-induced damage of sinusoids (RECA-1 immunofluorescence): significantly less
RTS-induced liver damage; EX, GA or RTS alone
  Apoptotic bodies: 0
  Central vein endothelial damage: 0
  Coagulative necrosis: 0
  Overall (sum of the scores from all individual parameters): 0
  Sinusoid fibrosis: 0
  Sinusoidal dilation: 0
  Sinusoidal hemorrhage: 0
  Subendothelial fibrosis: 0
  Subendothelial hemorrhage: 0
RTS-induced liver damage; both single and multiple doses + RTS
  RTS-induced hemorrhage and necrosis: significantly ameliorated
RTS-induced liver damage; [2]
  Apoptotic bodies: 0
  Central vein endothelial damage: 1
  Coagulative necrosis: 0
  Overall (sum of the scores from all individual parameters): 2-5
  Sinusoid fibrosis: 0
  Sinusoidal dilation: 1-2
  Sinusoidal hemorrhage: 0-1
  Subendothelial fibrosis: 0
  Subendothelial hemorrhage: 0-1
RTS-induced liver damage; [3]
  Apoptotic bodies: 0
  Central vein endothelial damage: 1
  Coagulative necrosis: 1
  Overall (sum of the scores from all individual parameters): 6-7
  Sinusoid fibrosis: 0
  Sinusoidal dilation: 2
  Sinusoidal hemorrhage: 1
  Subendothelial fibrosis: 0
  Subendothelial hemorrhage: 1-2
RTS-induced liver damage; substance alone
  histopathological examination of liver: No obvious liver damage
pyrrole-protein adducts
  reduction of AUC0–1440min of pyrrole-protein adducts: 16.2%
RTS-induced liver injury; EX or GA treatment + RTS, especially multiple dosage regimens
  RTS-induced hepatic GSH elevation: attenuated
RTS-induced liver injury; multiple doses + RTS 40 mg/kg
  RTS-induced hepatic MDA elevation: significantly attenuated
  RTS-induced serum ALT elevation: significantly attenuated
RTS-induced liver injury; single dose + RTS 40 mg/kg
  RTS-induced hepatic MDA elevation: significantly reduced
  RTS-induced serum ALT elevation: significantly reduced
RTS-induced liver injury; [4]
  hepatic MDA level compared with vehicle: unchanged
  serum ALT level compared with vehicle: unchanged
